Laboratory results: patent publication US20200207782A1, “CHEMICALLY ACTIVATED WATER-SOLUBLE PRODRUG” (SUMITOMO DAINIPPON PHARMA CO., LTD, priority 2017, published 2020)
Values joined by “and” are separate entries in the source; they are usually repeats but may differ in a detail not shown here. Equal values may be shown once. Where a name gives a salt, the structure may show the parent alone.

Tests used:
[1] = Solution stability test (residual ratio and generation of active form in buffers of pH 2.0 to 9.0); assay type: physicochemical; design: Rate of generation of active form after 24 hours in buffer with pH of 7.4: tested at 25 µM; conditions: for Residual ratio / Rate of generation of active form after 24 hours in buffer with pH of 7.4: 25° C.; for Residual ratio: 25 umol/L; for Degradation behaviour in buffers (in words): pH 2.0 to 9.0; for Rate of generation of active form after 24 hours in buffer with pH of 7.4: pH 7.4 buffer
Method: The test compounds were incubated at 25° C. at a concentration of 25 umol/L in a buffer prepared to have a pH of 2.0, 3.0, 5.0, 7.4, and 9.0. The compounds were measured by HPLC after 0, 3, 6, 9, 12, and 24 hours.
The buffers used at each pH are the following. • pH 2.0: 50 mmol/L glycine buffer • pH 3.0: 50 mmol/L citrate buffer • pH 5.0: 50 mmol/L citrate buffer • pH 7.4: 50 mmol/L phosphate buffer • pH 9.0: 50 mmol/L glycine buffer
The measurement conditions for HPLC are the following.
The yield of the Example and Reference Example compounds and active forms is calculated with each of the peak area of the Example and Reference Example compounds at 0 minutes and the peak area upon dissolution of the corresponding active form at 100 umol/L as 100%. The yield is denoted in terms of %

physchem = conditions: thermodynamic from solid; for solubility at 24 h: pH 2, aqueous buffer
Method: The solubility of the water-soluble prodrugs described in the Examples and the Reference Examples was measured. […] The filtrate was measured by HPLC.

CN1CC[C@H](c2c(OC(=O)N(C)CCN)cc(O)c3c(=O)cc(-c4ccccc4Cl)oc23)[C@H](O)C1 [Example 8, 2-(2-chlorophenyl)-5-hydroxy-8-[(3S,4R)-3-hydroxy-1-methylpiperidin-4-yl]-4-oxo-4H-chromen-7-yl (2-aminoethyl) methylcarbamate ditrifluoroacetate]
Residual ratio ([1]; pH2.0 buffer, 0 hr): 100% | Residual ratio ([1]; pH2.0 buffer, 3 hr): 100% | Residual ratio ([1]; pH2.0 buffer, 6 hr): 100% | Residual ratio ([1]; pH2.0 buffer, 9 hr): 100% | Residual ratio ([1]; pH2.0 buffer, 12 hr): 100% | Residual ratio ([1]; pH2.0 buffer, 24 hr): 100% | Degradation behaviour in buffers (in words) [1]: pH dependent and chemical degradation progressed | Residual ratio ([1]; pH3.0 buffer, 0 hr): 100% | Residual ratio ([1]; pH3.0 buffer, 3 hr): 100% | Residual ratio ([1]; pH3.0 buffer, 6 hr): 100% | Residual ratio ([1]; pH3.0 buffer, 9 hr): 100% | Residual ratio ([1]; pH3.0 buffer, 12 hr): 100% | Residual ratio ([1]; pH3.0 buffer, 24 hr): 100% | Residual ratio ([1]; pH5.0 buffer, 0 hr): 100% | Residual ratio ([1]; pH5.0 buffer, 3 hr): 98.2% | Residual ratio ([1]; pH5.0 buffer, 6 hr): 96.1% | Residual ratio ([1]; pH5.0 buffer, 9 hr): 94.4% | Residual ratio ([1]; pH5.0 buffer, 12 hr): 92.4% | Residual ratio ([1]; pH5.0 buffer, 24 hr): 85% and 85.2% | Residual ratio ([1]; pH7.4 buffer, 0 hr): 76.4% | Residual ratio ([1]; pH7.4 buffer, 3 hr): 0.1% | Residual ratio ([1]; pH7.4 buffer, 6 hr): 0.0% | Residual ratio ([1]; pH7.4 buffer, 9 hr): 0.1% | Residual ratio ([1]; pH7.4 buffer, 12 hr): 0.2% | Residual ratio ([1]; pH7.4 buffer, 24 hr): 0.5% | Rate of generation of active form after 24 hours in buffer with pH of 7.4 [1]: 88% | Residual ratio ([1]; pH9.0 buffer, 0 hr): 9.7% | Residual ratio ([1]; pH9.0 buffer, 3 hr): 0.2% | Residual ratio ([1]; pH9.0 buffer, 6 hr): 0.2% | Residual ratio ([1]; pH9.0 buffer, 9 hr): 0.1% | Residual ratio ([1]; pH9.0 buffer, 12 hr): 0.1% | Residual ratio ([1]; pH9.0 buffer, 24 hr): 0.0% | Stability in solution (in words) ([1]; pH of 2.0, 25° C.): sufficient stability | Stability in solution (in words) ([1]; pH of 3.0, 25° C.): sufficient stability | solubility (physchem; pH 5, aqueous buffer): > 10000 µg/mL

C[C@H]1COc2c1c(OC(=O)NCCNCC(=O)O)c(OC(=O)NCCNCC(=O)O)c1c3c(ccc21)C(C)(C)CCC3 [Example 12, 2,2′-{[(1R)-1,6,6-trimethyl-1,2,6,7,8,9-hexahydrophenanthro [1,2-b]furan-10,11-diyl]bis(oxycarbonylazanediylethane-2,1-diylazanediyl)}diacetic acid dihydrochloride]
Residual ratio ([1]; pH2.0 buffer, 0 hr): 100% | Residual ratio ([1]; pH2.0 buffer, 3 hr): 99.4% | Residual ratio ([1]; pH2.0 buffer, 6 hr): 98.9% | Residual ratio ([1]; pH2.0 buffer, 9 hr): 98.7% | Residual ratio ([1]; pH2.0 buffer, 12 hr): 98.5% | Residual ratio ([1]; pH2.0 buffer, 24 hr): 98.5% | Degradation behaviour in buffers (in words) [1]: pH dependent and chemical degradation progressed | Residual ratio ([1]; pH3.0 buffer, 0 hr): 100% | Residual ratio ([1]; pH3.0 buffer, 3 hr): 99.2% | Residual ratio ([1]; pH3.0 buffer, 6 hr): 98.9% | Residual ratio ([1]; pH3.0 buffer, 9 hr): 98.6% | Residual ratio ([1]; pH3.0 buffer, 12 hr): 98.4% | Residual ratio ([1]; pH3.0 buffer, 24 hr): 98.3% | Residual ratio ([1]; pH5.0 buffer, 0 hr): 100% | Residual ratio ([1]; pH5.0 buffer, 3 hr): 99.1% | Residual ratio ([1]; pH5.0 buffer, 6 hr): 98.1% | Residual ratio ([1]; pH5.0 buffer, 9 hr): 97.1% | Residual ratio ([1]; pH5.0 buffer, 12 hr): 96.4% | Residual ratio ([1]; pH5.0 buffer, 24 hr, dihydrochloride): 93% and 93.3% | Residual ratio ([1]; pH7.4 buffer, 0 hr): 100% | Residual ratio ([1]; pH7.4 buffer, 3 hr): 9.8% | Residual ratio ([1]; pH7.4 buffer, 6 hr): 1.7% | Residual ratio ([1]; pH7.4 buffer, 9 hr): 1.4% | Residual ratio ([1]; pH7.4 buffer, 12 hr): 0% | Residual ratio ([1]; pH7.4 buffer, 24 hr): 0% | Rate of generation of active form after 24 hours in buffer with pH of 7.4 [1]: 11% | Stability in solution (in words) ([1]; pH of 2.0, 25° C.): stable | Stability in solution (in words) ([1]; pH of 3.0, 25° C.): stable | solubility at 24 h (physchem): > 10000 µg/mL

C[C@H]1COc2c1c(OC(=O)NCCCNCC(=O)O)c(OC(=O)NCCCNCC(=O)O)c1c3c(ccc21)C(C)(C)CCC3 [Example 13, 2,2′-{[(1R)-1,6,6-trimethyl-1,2,6,7,8,9-hexahydrophenanthro[1,2-b]furan-10,11-diyl]bis(oxycarbonylazanediylpropane-3,1-diylazanediyl)}diacetic acid dihydrochloride]
Degradation behaviour in buffers (in words) [1]: pH dependent and chemical degradation progressed | Residual ratio ([1]; pH3.0 buffer, 0 hr): 100% | Residual ratio ([1]; pH3.0 buffer, 3 hr): 100% | Residual ratio ([1]; pH3.0 buffer, 6 hr): 100% | Residual ratio ([1]; pH3.0 buffer, 9 hr): 99.8% | Residual ratio ([1]; pH3.0 buffer, 12 hr): 99.6% | Residual ratio ([1]; pH3.0 buffer, 24 hr): 100% | Residual ratio ([1]; pH5.0 buffer, 0 hr): 100% | Residual ratio ([1]; pH5.0 buffer, 3 hr): 99.4% | Residual ratio ([1]; pH5.0 buffer, 6 hr): 99.2% | Residual ratio ([1]; pH5.0 buffer, 9 hr): 99.0% | Residual ratio ([1]; pH5.0 buffer, 12 hr): 98.6% | Residual ratio ([1]; pH5.0 buffer, 24 hr): 98.4% | Residual ratio ([1]; pH7.4 buffer, 0 hr): 100% | Residual ratio ([1]; pH7.4 buffer, 3 hr): 61.8% | Residual ratio ([1]; pH7.4 buffer, 6 hr): 42.6% | Residual ratio ([1]; pH7.4 buffer, 9 hr): 28.5% | Residual ratio ([1]; pH7.4 buffer, 12 hr): 19.1% | Residual ratio ([1]; pH7.4 buffer, 24 hr, dihydrochloride): 6% and 6.1% | Rate of generation of active form after 24 hours in buffer with pH of 7.4 [1]: 5% | Residual ratio ([1]; pH9.0 buffer, 0 hr): 100% | Residual ratio ([1]; pH9.0 buffer, 3 hr): 99.7% | Residual ratio ([1]; pH9.0 buffer, 6 hr): 99.4% | Residual ratio ([1]; pH9.0 buffer, 9 hr): 99.3% | Residual ratio ([1]; pH9.0 buffer, 12 hr): 99.1% | Residual ratio ([1]; pH9.0 buffer, 24 hr): 100% | Stability in solution (in words) ([1]; pH of 2.0, 25° C.): stable | Stability in solution (in words) ([1]; pH of 3.0, 25° C.): stable | Stability in solution (in words) ([1]; pH of 5.0, 25° C.): stable | solubility at 24 h (physchem): > 10000 µg/mL

CC(=O)c1cc2c(O)c3c(O)cccc3c(OC(=O)NCCCN)c2o1 [Reference Example 9, 2-Acetyl-4,5-dihydroxynaphtho[2,3-b]furan-9-yl(3-aminopropyl)carbamate hydrochloride]
Residual ratio ([1]; pH2.0 buffer, 0 hr): 100% | Residual ratio ([1]; pH2.0 buffer, 3 hr): 96.9% | Residual ratio ([1]; pH2.0 buffer, 6 hr): 92.9% | Residual ratio ([1]; pH2.0 buffer, 9 hr): 85.7% | Residual ratio ([1]; pH2.0 buffer, 12 hr): 85.2% | Degradation behaviour in buffers (in words) [1]: pH dependent and chemical degradation progressed | Residual ratio ([1]; pH3.0 buffer, 0 hr): 101% | Residual ratio ([1]; pH3.0 buffer, 3 hr): 100% | Residual ratio ([1]; pH3.0 buffer, 6 hr): 100% | Residual ratio ([1]; pH3.0 buffer, 9 hr): 99.8% | Residual ratio ([1]; pH3.0 buffer, 12 hr): 99.5% | Residual ratio ([1]; pH3.0 buffer, 24 hr): 98.4% | Residual ratio ([1]; pH5.0 buffer, 0 hr): 102% | Residual ratio ([1]; pH5.0 buffer, 3 hr): 104% | Residual ratio ([1]; pH5.0 buffer, 6 hr): 99.7% | Residual ratio ([1]; pH5.0 buffer, 9 hr): 93.8% | Residual ratio ([1]; pH5.0 buffer, 12 hr): 87.4% | Residual ratio ([1]; pH5.0 buffer, 24 hr, hydrochloride): 67% and 67.1% | Residual ratio ([1]; pH7.4 buffer, 0 hr): 103% | Residual ratio ([1]; pH7.4 buffer, 3 hr): 83.0% | Residual ratio ([1]; pH7.4 buffer, 6 hr): 67.1% | Residual ratio ([1]; pH7.4 buffer, 9 hr): 52.7% | Residual ratio ([1]; pH7.4 buffer, 12 hr): 41.1% | Residual ratio ([1]; pH7.4 buffer, 24 hr, hydrochloride): 26% and 25.5% | Rate of generation of active form after 24 hours in buffer with pH of 7.4 [1]: 71% | Residual ratio ([1]; pH9.0 buffer, 0 hr): 75.3% | Residual ratio ([1]; pH9.0 buffer, 3 hr): 13.7% | Residual ratio ([1]; pH9.0 buffer, 6 hr, hydrochloride): 0% | Residual ratio ([1]; pH9.0 buffer, 9 hr): 0.0% | Residual ratio ([1]; pH9.0 buffer, 12 hr): 0.0% | Residual ratio ([1]; pH9.0 buffer, 24 hr): 0.0% | Stability in solution (in words) ([1]; pH of 2.0, 25° C.): sufficient stability | Stability in solution (in words) ([1]; pH of 3.0, 25° C.): sufficient stability | solubility (physchem; pH 3, aqueous buffer): > 10000 µg/mL
